Experimental findings from patent US7423015B1, “Antihelminthic drugs as a treatment for hyperproliferative diseases” (Board of Regents, The University of Texas System, priority 2001, dated 2008) are described below.

One assay has as its system p21/WAF1 transcript. Briefly: Northern blot analysis in H460 cells. The class given is cell-based, human. Conditions: at the time the p53 level peaked. The protocol: (§1) Total RNA was isolated from the subconfluent cultures using the guanidinium thisocyanate method (Lacey, 1988). After this 20 μg of the RNA was electrophoresed in a denaturing 1.2% agarose/morpholinepropanesulfonic acid (MOPS)-formaldehyde gel, transferred onto a nitrocellulose membrane, and hybridized to a ^32P-radiolabeled p53 cDNA probe, as described elsewhere (Lubiga and Prichard, 1990). The ^32P-labeled probes were generated using random primers (>8×10^8 cpm/μg). Blots were washed at 65° C. in 2× standard saline citrate (SSC) for 30 min and then washed twice at 60° C. in 0.1% sodium dodecyl sulfate (SDS) and 0.1×SSC. The cDNA probes used were 1.2-kb human p53 cDNA and an 800-bp fragment of human p21 cDNA.
(§2) Cell extracts were prepared from H460 cells exposed to 0.05 μg/ml FZ or MZ for various durations (1 to 24 hr). The effect of FZ and MZ on the nuclear accumulation of p53 appeared to be gradual and was not significant within the first hour of exposure. […] The appearance of p53 in response to drug treatment also coincided with the initiation of apoptosis, which was detectable by 24 hr, as well as shown earlier by TdT FACS analysis. […] Total RNA was extracted and […] was used for the analysis. p53 protein was detected by immunoblot analysis.

The subject of a further assay is p53 mRNA. Put plainly: Northern blot analysis in H460 cells. To be noted: 0.05 μg/ml, 24 hr. Format: cell-based, human. On the procedure:
as §1, §2

The next assay concerns p53 protein. Briefly: p53 induction, immunoblot analysis of nuclear extracts. Format: cell-based, human. The arrangement: p53 Induction: dose or concentration left out as unconfirmed.
In the next assay the test system is H460 cells. Put plainly: Induction of apoptosis in H460 (Hoechst 33342, TUNEL, TdT FACS). Format: cell-based, human. The protocol:
Cells were seeded onto chamber slides and treated with various reagents, after which cell monolayers were washed twice with ice-cold PBS (pH 7.4). Thereafter, cells were fixed for 5 min at 20° C. in 10% formalin. The washing step with PBS was then repeated once. To stain the nuclei, the cells were incubated for 10 min with 10 μg/ml of Hoechst 33342 and then washed with PBS. The coverslips with the stained cells were mounted in 80% glycerol in PBS containing 1 mg/ml P-phenylenediamine and examined with a Nikon epifluorescence microscope.
Apoptotic assay was done using M30 CytoDEATH apoptotic cell death assay kit (Boehringer Mannnheim). Cells were grown on chamber slides, control and benzimidazole treated cells were stained with Mouse monoclonal antibody (clone M30) as per manufacturer's instructions. […] Flow cytometry was carried out in a fluorescence-activated cell sorter (Epics Elite; Coulter, Inc., Hialeah, Fla.).
The inventors tested the effect of BZ treatment on the human NSCLC cell line H460. […] Chromatin condensation was noted under a fluorescence microscope at 24 h after treatment, by staining the nuclei with Hoechst 33342 fluorescent dye. […] Gross morphological changes associated with a loss of viability were observed by 24 hr post-treatment, whereas signs of apoptosis, detected by DNA staining and TUNEL assays, became apparent by 24 hr after drug treatment.

Assay [1] concerns neovascularization induced by A549 cells. Briefly: Angiogenesis by tumor cells in vivo, dorsal air-sac method. The arrangement: species or system nude mouse. Conditions: MZ oral suspension 1 mg/mouse/day, day 5. The protocol:
In vivo angiogenesis was assayed by the dorsal air-sac method (Bouvet et al., 1998). Briefly, 1×10^7 cultured A549 cells were suspended in PBS and packed into round cellulose ester membrane chambers with a diameter of 14 mm (pore size, 0.45 μm; Millipore, Bedford, Mass.). The chambers were then implanted into a dorsal air sac of a nude mouse. After the chamber implantation mice were fed with MZ oral suspension (1 mg/mouse/day). Five mice were used in each group. The mice were killed on day 5, and the subcutaneous region overlying the chamber in each mouse was photographed. The experiment was repeated two times with identical results.
In vivo angiogenesis was further assayed by the dorsal air-sac method (Tanaka et al., 1989). Subcutaneous neovascularization overlying a semipermeable membrane chamber containing […] cells. […] In order to exclude the possibility that the reduced vasculature was due to lack of viable tumor cells in the chamber, cells were prelabeled with fluorescent dye and injected into the chamber. After the blood vessels were photographed, the tumor cells on the membrane was examined under a fluorescence microscope.

Take `COC(=O)Nc1nc2ccc(Sc3ccccc3)cc2[nH]1` [Fenbendazole, methy 5-(phenylthio)-2-benzimidazole-2-carbamate]: the “level of the p21/WAF1 transcript” value in the assay on p21/WAF1 transcript is recorded as “significantly increased”. Also, in the assay with p53 mRNA, the “p53 mRNA levels” value was “no significant changes”. In addition, the “p53 Induction” value with p53 protein (H226Br) is “No”; in the assay on p53 protein (H322), “No”; with p53 protein (H358), “No”; with p53 protein (H460), “Yes”; with p53 protein (H549), “Yes”; in the assay on p53 protein (H596), “No”. Moreover, the “p53 Induction” value is recorded as “No” in the assay with p53 protein (H1299); “No” in the assay on p53 protein (HeLa); “No” with p53 protein (Hep 3B); “Yes” in the assay with p53 protein (MCF-7); “No” in the assay with p53 protein (MDA 231); “No” in the assay with p53 protein (RD). Besides, the “p53 Induction” value in the assay on p53 protein (SK-OV-433) is listed as “Yes”; in the assay on p53 protein (SW480) it was “No”; in the assay with p53 protein (Saos-2) it was “No”; in the assay with p53 protein (SiHa) it was “No”. For the same compound, the “concentration at which induction of p53 became detectable” value in the assay on p53 protein (H460) came to 0.01 µg/mL. The “induction of p53 production” value in the assay on p53 protein (HeLa (HPV-18) and SiHa (HPV-16) cells, 48 h, total cell proteins) is given as “no induction”. Also, the “apoptotic effect on H460 cells” value with H460 cells was “apoptotic effect”.
As to `COC(=O)Nc1nc2ccc(C(=O)c3ccccc3)cc2[nH]1` [Mebendazole, Methyl 5-benzoylbenzimidazole-2-carbamate], the “level of the p21/WAF1 transcript” value with p21/WAF1 transcript is on record as “significantly increased”. In addition, the “p53 mRNA levels” value in the assay on p53 mRNA is listed as “no significant changes”. Further, the “p53 Induction” value was “No” in the assay on p53 protein (H226Br); “No” in the assay on p53 protein (H322); “No” with p53 protein (H358); “Yes” in the assay on p53 protein (H460); “Yes” with p53 protein (H549); “No” in the assay on p53 protein (H596). Further, the “p53 Induction” value in the assay on p53 protein (H1299) is “No”; in the assay with p53 protein (HeLa), “No”; with p53 protein (Hep 3B), “No”; with p53 protein (MCF-7) it was “Yes”; in the assay on p53 protein (MDA 231), “No”; in the assay with p53 protein (RD) it was “No”. Moreover, the “p53 Induction” value is given as “Yes” in the assay with p53 protein (SK-OV-433), “No” with p53 protein (SW480), “No” in the assay on p53 protein (Saos-2) and “No” with p53 protein (SiHa). Moreover, the “number and caliber of blood vessels” value in assay [1] is listed as “significantly reduced”. Moreover, in the assay with H460 cells, the “apoptotic effect on H460 cells” value was “apoptotic effect”.
